Reference: patent US7008666B2, “Method of inhibiting overactivity of phagocytes or lymphocytes in an individual” (Hormos Nutraceutical Oy Ltd., priority 2001, dated 2006)

Legend:
Monocytes [1] = assay: LPS-induced TNF-α production by monocytes, ELISA; format: cell-based, human; details: 100 μM, 24 h pre-incubation, LPS 1 μg/ml for 48 h; IL-10 100 U/ml
Description: Monocytes were isolated from human peripheral blood mononuclear cells by magnetic sorting. The cells were pre-incubated with the lignans matairesinol (as a reference compound) and enterolactone (1–100μM) or interleukin 10 (IL-10) (100 U/ml) for 24 hours before addition of LPS (1 μg/ml) into cell culture. After additional 48 hours the levels of TNF- from culture supernatants were measured by ELISA.

[2] = tested on: Fas receptor on Jurkat cells; assay: Fas receptor surface (FasR) expression, immunostaining; format: cell-based, human; details: 50 or 100 μM, versus untreated control
Description: Effect of lignans on Fas receptor surface (FasR) expression: The experiment was performed essentially as described in the literature (Brunner et al., Nature 373, 441–443, 1995). The surface expression of the FasR was measured by immunostaining alive Jurkat cells with an monoclonal anti-FasR antibody (Medical Biological Laboratories Co. Ltd, Japan, clone CH-11) and an anti-mouse antibody labelled with FITC (Alexis Biochemicals Ltd, USA) according to manufacturers instructions. The fluorescence intensity equals the amount of antibody bound to the FasR on the cell membrane.

human neutrophils = assay: Neutrophil oxidative burst, PMA-stimulated, lucigenin chemiluminescence; format: cell-based; details: human neutrophils in vitro, PMA stimulus
Description: (§1) Isolation of neutrophils: Neutrophils were isolated from 30 mL freshly drawn heparinized whole blood, after dextran sedimentation of erythrocytes for 30 min. The leucocyte rich plasma was layered over an equal volume of Percoll (Sigma) and centrifuged at 400×g for 15 min. Erythrocytes, contaminating the neutrophil pellet, were destroyed by osmotic lysis with 0.87% NH4Cl (pH 7.0). Neutrophils were washed with PBS (pH 7.1) and centrifuged at 200×g for 10 min. Cells were resuspended in fresh HBS (containing 0.8 g NaCl, 0.4 g KCl, 0.06 g Na2HPO4×2 H2O, 0.06 g KH2PO4, 0.1 g MgSO4×7H2O and 1 g glucose in 1000 mL of distilled water; pH adjusted to 7.4 by 7% NaHCO3) and counted before use.
Measurement of neutrophil oxidative burst: Production of reactive oxygen species by neutrophils was recorded by chemiluminescent analysis. Chemiluminescence measurements were performed with Bio-Orbit 1251 Luminometer connected to a personal computer with special programs for the assays (Bio-Orbit, Turku, Finland). The protocol for each assay included automatic pipetting of the appropriate reagent that initiated the reaction in all cuvettes. Six or twelve samples were analyzed simultaneously, depending on the assay. Disposable plastic cuvettes were used throughout.
One millilitre of cell suspension (final cell count 10^6 cells/mL) was placed in plastic cuvettes, and the level of resting chemiluminescence was recorded before addition of the stimulus; production of reactive oxygen by neutrophils (oxidative burst) was stimulated by addition of phorbol-myristate-acetate (PMA). The buffer (HBS, pH 7.4) was pipetted in a volume of 0.930 mL in the luminometer cuvette. Test compounds were added to incubation mixtures in a small volume (2% of total incubation volume) of ethanol. […] Fifty microliters of 5 mM lucigenin was added, and the reaction was initiated by 0.020 mL of 0.1 mM PMA at 37° C. The chemiluminescence was measured for about 45 min at 1 min cycles and the area under curve (integral) was calculated. […] Based on these experiments, a IC50-value (concentration that under these circumstances produced a 50% inhibition of neutrophil oxidative burst) was determined.

Myeloperoxidase = biological target: T1, Myeloperoxidase (Homo sapiens, UniProt P05164); assay: Myeloperoxidase activity, tetramethylbenzidine oxidation; format: biochemical; details: human neutrophils in vitro
T1 construct: And Myeloperoxidase Activity Of Human Neutrophils In Vitro; endogenous in cells; host or cells: human neutrophils isolated from freshly drawn heparinized whole blood
T1 sequence (P05164 279-745 limits assumed): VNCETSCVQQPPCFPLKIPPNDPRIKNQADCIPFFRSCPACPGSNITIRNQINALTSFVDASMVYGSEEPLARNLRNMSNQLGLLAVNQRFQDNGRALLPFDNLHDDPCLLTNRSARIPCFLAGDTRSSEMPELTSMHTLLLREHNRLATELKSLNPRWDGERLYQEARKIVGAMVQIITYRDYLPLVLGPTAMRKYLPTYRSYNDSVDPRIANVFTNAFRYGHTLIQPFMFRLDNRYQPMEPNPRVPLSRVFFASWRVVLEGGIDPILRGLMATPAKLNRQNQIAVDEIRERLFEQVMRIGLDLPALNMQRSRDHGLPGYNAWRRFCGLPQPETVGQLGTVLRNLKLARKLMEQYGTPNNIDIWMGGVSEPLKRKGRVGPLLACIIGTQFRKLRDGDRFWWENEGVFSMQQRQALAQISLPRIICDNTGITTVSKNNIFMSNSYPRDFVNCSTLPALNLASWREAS
T1 sequence (P05164 165-273 limits assumed): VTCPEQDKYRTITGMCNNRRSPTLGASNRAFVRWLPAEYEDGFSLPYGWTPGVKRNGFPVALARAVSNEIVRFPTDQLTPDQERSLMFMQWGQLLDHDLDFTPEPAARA
Description: as §1
Myeloperoxidase activity: Myeloperoxidase activity was determined by the method of Suzuki et al. (Suzuki, K., Ota, H., Sasagawa, S., Sakatoni, T., Fujikura, T., Ann Biochem 132:345–352, 1983) in which the enzyme catalyzes the oxidation of 3,3′,5,5′-tetramethylbenzidine by H2O2 to yield a blue chromogen with a maximum wavelength of 655 nm. Studies on myeloperoxidase inhibition in vitro were performed by adding test compounds to incubation mixtures in a small volume (2% of incubation volume) of ethanol. […] Based on these experiments, a IC50-value (concentration that under these circumstances produced a 50% inhibition of myeloperoxidase activity) was determined.

neutrophils = details: 6.25 mg daily for 1 week; cited from earlier work
mononuclear cells = details: 6.25 mg daily for 1 week; cited from earlier work
Monocytes [3] = details: 1200 IU per day for 8 weeks, healthy volunteers; cited from earlier work

SMILES | IC50 (human neutrophils; Neutrophil) [µM] | IC50 (Myeloperoxidase) [µM] | Fas surface expression [2] | further results
O=C1OC[C@H](Cc2cccc(O)c2)[C@H]1Cc1cccc(O)c1 [enterolactone] | – | – | elevated level of Fas protein | LPS-induced TNF-α production compared with positive control IL-10 (Monocytes [1]): at least as effective
CC(=O)C(=Cc1cc(O)c(O)c([N+](=O)[O-])c1)C(C)=O [Nitecapone, nitecapone, reference compound] | 7.5 | 2.3 | – | –
COc1ccccc1OCCNCC(O)COc1cccc2[nH]c3ccccc3c12 (stereo not shown) [carvedilol] | – | – | – | decrease of reactive oxygen production by neutrophils (neutrophils): 59%; decrease of reactive oxygen production by mononuclear cells (mononuclear cells): 62%
Cc1c(C)c2c(c(C)c1O)CC[C@@](C)(CCC[C@H](C)CCC[C@H](C)CCCC(C)C)O2 [alpha-tocopherol] | – | – | – | decrease in reactive oxygen production by monocytes (Monocytes [3]): 50%–60

Continued, in another order:

IC50 (human neutrophils; Neutrophil) [µM] | IC50 (Myeloperoxidase) [µM] | SMILES | Fas surface expression [2] | further results
11 | 44.5 | COc1cc(C[C@H]2COC(=O)[C@@H]2Cc2ccc(O)c(OC)c2)ccc1O [Matairesinol, matairesinol] | elevated level of Fas protein | LPS-induced TNF-α production compared with positive control IL-10 (Monocytes [1]): at least as effective
– | 54 | CN(C)CCOc1ccc(/C(=C(/CCCl)c2ccccc2)c2ccc(O)cc2)cc1 [4-OH-toremifene, reference compound] | – | IC50 (human neutrophils): 1.7 µM
5.3 | 6.8 | COc1cc(CC2C(=O)OCC2C(O)c2ccc(O)c(OC)c2)ccc1O (stereo not shown) [Hydroxymatairesinol, hydroxymatairesinol] | elevated level of Fas protein | –
